Experimental data from US8875704B2, “Nasal administration” (priority 2007, dated 2014).
Read-outs that look alike come from different tables or passages of the source.

Columns and labels:
GTN-induced migraine = conditions: cited from earlier work
[1] = intranasal, formulations containing cyclodextrins, rabbits; cited from earlier work
allergic rhinitis = conditions: intranasal, humans; cited from earlier work
[2] = human, in vivo, inhaled or intranasal
Description: In this study, the fraction absorbed nasally was calculated by preventing absorption via the GI tract through the use of charcoal.

[3] = nasal spray, cited from earlier work
[4] = in vivo; cited from earlier work
[5] = cited from earlier work
[6] = rat, in vivo; cited from earlier work

**Q.** For `O=[N+]([O-])OCC(CO[N+](=O)[O-])O[N+](=O)[O-]` [GTN, glyceryltrinitrate], which “subjects with a history of migraine in whom migraine is expected to be induced” value (GTN-induced migraine; GTN challenge) is on record?
**A.** The value was 75%.

**Q.** Which “Tmax, powder versus liquid formulations” value [1] does the source give for `CN1C[C@H](C(=O)N[C@]2(C)O[C@@]3(O)[C@@H]4CCCN4C(=O)[C@H](Cc4ccccc4)N3C2=O)C[C@@H]2c3cccc4[nH]cc(c34)C[C@H]21` [dihydroergotamine] here?
**A.** Its value is “broadly comparable”.

**Q.** For `O=C(O)c1cc(=O)c2c(OCC(O)COc3cccc4oc(C(=O)O)cc(=O)c34)cccc2o1` [sodium cromoglycate], which “effectiveness, powder versus solution formulation” value (allergic rhinitis) is on record?
**A.** Its value is “somewhat more effective”.

**Q.** Which “time to reversal of GTN-induced excess of theta (more than 15%) after treatment” value (GTN-induced migraine; studies by others) does the source give for `CNS(=O)(=O)Cc1ccc2[nH]cc(CCN(C)C)c2c1` [sumatriptan] here?
**A.** Its value is at most 30 min.

**Q.** Which “ratio of nasal absorption fraction to total bioavailability (BA)” value [2] does the source give for `CN(C)CCc1c[nH]c2ccc(C[C@H]3COC(=O)N3)cc12` [zolmitriptan] here?
**A.** Its value is “about 0.75”.

**Q.** And the “fraction of nasal absorption” value ([3]; GI absorption prevented with charcoal)?
**A.** Its value is “about 30%”.

**Q.** And the “total BA” value [3]?
**A.** Its value is “about 40%”.

**Q.** With calcitonin as the molecule, how does the “absorption, liquid versus powder formulations” value [4] read?
**A.** The value was “comparable”.

**Q.** With elcatonin as the molecule, how does the “bio-availability in vivo, powder formulation versus liquid” value [5] read?
**A.** Its value is “greater bio-availability”.

**Q.** Which “Tmax, powder versus liquid formulations” value [6] does the source give for salmon calcitonin here?
**A.** The value was “no apparent difference”.
